Assay results taken from paper PMC7689089, “Regorafenib combined with PD1 blockade increases CD8 T-cell infiltration by inducing CXCL10 expression in hepatocellular carcinoma” (Journal for Immunotherapy of Cancer, 2020).
Read-outs that look alike come from different tables or passages of the source.

Key:
RIL-175 cells = assay: CXCL10 secretion by RIL-175 cells in vitro (ELISA); type: cell-based, mouse; conditions: 2μM for 36hr; ELISA; n=6
Excerpt: To determine if CXCL10 was produced by murine HCC cells in response to regorafenib treatment, we next cultured RIL-175 cells with various concentration of regorafenib in vitro and measured the CXCL10 levels by ELISA. […]
treated by regorafenib as standard of care (HCC) (using the DFCI Protocol No.: 13-416 “Collection of Specimens and Clinical Data for Patients with Known or Suspected Solid Tumors”, PI, Dr. Juric, MGH) or in a phase I clinical trial of regorafenib monotherapy in acute myeloid leukemia (AML) patients (ClinicalTrials.gov Identifier: NCT03042689, PI, Hobbs, MGH). Both protocols have been IRB approved, and written consent was obtained from all patients.
Protein analyses. Western blotting was performed using antibodies against Stat1 (D1K9Y), phosphorylated (p)-Stat1 (Tyr701) (D4A7), Stat3 (79D7), p-Stat3 (Ser727) (Cell Signaling Technology, Danvers, MA), and IFN-γ (EPR1108) (Abcam, Cambridge, MA). Multiplexed protein array analysis was performed for protein extracts from whole tumors, using V-PLEX Proinflammatory Panel 1 Mouse Kit, V-PLEX Cytokine Panel 1 Mouse Kit and V-PLEX […] (Meso-Scale Discovery, Rockville, MD). For cell supernatant collection, 1x10^6 of RIL-175 cells were cultured in DMEM medium with 2% FBS and regorafenib was given in a various dose.
Supernatant was collected after 36hr of incubation and multiplexed protein array analysis was done using the same kit above.
Flow cytometry analysis. Tumor tissues were extracted from the mice, weighted and minced with a scalpel. Hank’s buffered salt solution (HBSS) with 1.5mg/ml of collagenase and hyaluronidase was added to the minced tissues and incubated for 30 min at 37°C. After incubation, digested tissues were passed through the 70μm cell strainer and washed with PBS with 2% BSA. After preparation, cells were suspended in 2ml of PBS with 2% BSA, then counted using a cell counting plate (Kova slide) (if the final concentration of cell exceeded 10^7 cells/ml, a dilution factor was applied). One hundred microliters of this suspension were used per subsequent flow cytometry staining. […]

[1] = mouse, in vivo
Procedure: From the orthotopic HCC and liver damage mouse models described above, blood samples were collected at 1, 4, 7 and 24 hours after once-daily oral administration of 5, 10 and 20 mg/kg regorafenib, respectively, for 5 days. Anti-PD1 antibody was given on days 1 and 4 with dose of 10 mg/kg by intraperitoneal injection. Blood samples were drawn from four to five animals per sampling time point. Regorafenib and its active metabolites M-2, M-4 and M-5 were analyzed in plasma samples using a validated bioanalytical liquid chromatography-tandem mass spectrometry.[25 33] Pharmacokinetic (PK) parameters were derived from the area under the plasma concentration versus time curve (AUC) using a non-compartmental analysis.
In addition, we evaluated PK parameters in HCC-bearing mice after regorafenib administration alone at doses of 5, 10 and 20 mg/kg or in combination with anti-PD1 therapy at the 10 mg/kg regorafenib dose for 5 days to achieve a steady state.

advanced HCC [2] = test system: advanced HCC; design: method as in ref 4 5; conditions: patients with advanced HCC; ref 4 5; cited from earlier work
advanced HCC [3] = test system: advanced HCC; design: method as in ref 14 15; conditions: previously treated patients with advanced HCC; phase I/II trial data; ref 14 15; cited from earlier work

For NS(=O)(=O)c1cccc2c1C(=O)c1cccc(O)c1C2=O [LLL12], the “CXCL10 expression in RIL-175 cells” value (RIL-175 cells) was “significantly increased”.
For NC(=O)c1cc(Oc2ccc(NC(=O)Nc3ccc(Cl)c(C(F)(F)F)c3)c(F)c2)ccn1 [M-4], the “Plasma Tmax” value [1] was 7 h, the “Tumor Tmax” value [1] was 7 h and the “Plasma AUC” value ([1]; po, 5 mg/kg) was 363 ng·h/mL. The “Plasma AUCnorm” value ([1]; po, 5 mg/kg) was 0.0749 kg·h/L, the “Plasma Cmax” value ([1]; po, 5 mg/kg) was 21.7 ng/mL and the “Plasma Tmax” value ([1]; po, 5 mg/kg) was 7 h. For the same molecule, the “Tumor AUC” value ([1]; po, 5 mg/kg) was 1040 ng·h/mL, the “Tumor AUCnorm” value ([1]; po, 5 mg/kg) was 0.209 kg·h/L and the “Tumor Cmax” value ([1]; po, 5 mg/kg) was 52.8 µg/kg. For the same molecule, the “Tumor Tmax” value ([1]; po, 5 mg/kg) was 4 h, the “Plasma AUC” value ([1]; po, 10 mg/kg) was 663 ng·h/mL and the “Plasma AUCnorm” value ([1]; po, 10 mg/kg) was 0.0684 kg·h/L. For the same molecule, the “Plasma Cmax” value ([1]; po, 10 mg/kg) was 40.5 ng/mL, the “Plasma Tmax” value ([1]; po, 10 mg/kg) was 7 h and the “Tumor AUC” value ([1]; po, 10 mg/kg) was 2100 ng·h/mL. For the same molecule, the “Tumor AUCnorm” value ([1]; po, 10 mg/kg) was 0.210 kg·h/L, the “Tumor Cmax” value ([1]; po, 10 mg/kg) was 117 µg/kg and the “Tumor Tmax” value ([1]; po, 10 mg/kg) was 7 h. The “Plasma AUC” value ([1]; po, 20 mg/kg) was 1480 ng·h/mL, the “Plasma AUCnorm” value ([1]; po, 20 mg/kg) was 0.0763 kg·h/L and the “Plasma Cmax” value ([1]; po, 20 mg/kg) was 124 ng/mL. For the same molecule, the “Plasma Tmax” value ([1]; po, 20 mg/kg) was 7 h, the “Tumor AUC” value ([1]; po, 20 mg/kg) was 3780 ng·h/mL and the “Tumor AUCnorm” value ([1]; po, 20 mg/kg) was 0.189 kg·h/L. The “Tumor Cmax” value ([1]; po, 20 mg/kg) was 214 µg/kg and the “Tumor Tmax” value ([1]; po, 20 mg/kg) was 7 h.
For CNC(=O)c1cc(Oc2ccc(NC(=O)Nc3ccc(Cl)c(C(F)(F)F)c3)cc2)ccn1 [Sorafenib], the “OS benefit over placebo” value (advanced HCC [2]) is given as “approximately 3 months”.
For nivolumab: anti-PD1 antibody, the Responses (advanced HCC [3]) is listed as 14%–31%.
In the case of pembrolizumab: anti-PD1 antibody, the Responses (advanced HCC [3]) is given as 14%–31%.
